Test results reported in patent US10323041B2, “Bicyclic derivatives, a process for their preparation and pharmaceutical compositions containing them” (LES LABORATOIRES SERVIER, priority 2015, dated 2019).
Like-named read-outs stand apart in the source and are kept apart here.

Legend:
Mcl-1 protein = Mcl-1 protein (Homo sapiens, UniProt Q07820); test: Inhibition of Mcl-1 by the fluorescence polarisation technique; format: binding
How it was run: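 Competitive FP with fluorescein-labelled peptide ligand, 5% DMSO, ~2 h at room temperature, 11-point curves, 4-parameter IC50. Method 1: 1 nM ligand, 5 nM Mcl-1 in HEPES pH 7.4 buffer; Method 2: 10 nM ligand, 10 nM Mcl-1 in phosphate pH 7.4 buffer, 50 μM unlabelled ligand as full-inhibition control.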

[1] = tested on: H929 multiple myeloma tumour line; test: In vitro cytotoxicity, Microculture Tetrazolium Assay on H929 cells; format: cell-based; conditions: cell viability, read-out: IC50 (M) MTT H929
Method: The cytotoxicity studies were carried out on the H929 multiple myeloma tumour line.
The cells are distributed onto microplates and exposed to the test compounds for 48 hours. The cell viability is then quantified by a colorimetric assay, the Microculture Tetrazolium Assay (Cancer Res., 1987, 47, 939-942).

cleaved form of PARP = test: Quantification of the cleaved form of PARP in vivo; design: species or system mice (SCID strain); conditions: AMO-1 xenograft in SCID mice; cleaved PARP in tumour lysates, treated / control; intraveinous or oral routes
Method: The ability of the compounds of the invention to induce apoptosis, by measuring cleaved PARP levels, is evaluated in a xenograft model of AMO-1 multiple myeloma cells.
1.10^7 AMO-1 cells are grafted sub-cutaneously into immunosuppressed mice (SCID strain). 12 to 14 days after the graft, the animals are treated by intraveinous or oral routes with the various compounds. After treatment, the tumour masses are recovered and lysed, and the cleaved form of PARP is quantified in the tumour lysates.
The quantification is carried out using the “Meso Scale Discovery (MSD) ELISA platform” test, which specifically assays the cleaved form of PARP. It is expressed in the form of an activation factor corresponding to the ratio between the quantity of cleaved PARP in the treated mice divided by the quantity of cleaved PARP in the control mice.

[2] = Method 1 (not underlined) or Method 2 (underlined), underlining not visible, first value where cell prints two, read-out: IC50 (M) Mcl-1 FP
[3] = Homo sapiens, NCI-H929, exposed for 48 hours

Mcl-1 protein, sequence (Q07820 whole entry): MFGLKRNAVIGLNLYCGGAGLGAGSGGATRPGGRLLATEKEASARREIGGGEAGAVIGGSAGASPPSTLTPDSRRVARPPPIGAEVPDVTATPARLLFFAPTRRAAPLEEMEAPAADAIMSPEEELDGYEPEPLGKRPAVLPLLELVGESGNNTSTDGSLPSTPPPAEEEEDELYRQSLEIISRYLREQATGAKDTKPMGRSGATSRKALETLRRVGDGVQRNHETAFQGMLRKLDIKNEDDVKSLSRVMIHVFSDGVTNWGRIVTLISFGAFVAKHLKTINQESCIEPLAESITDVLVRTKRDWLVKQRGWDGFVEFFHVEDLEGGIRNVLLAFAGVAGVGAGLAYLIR

Row | SMILES | IC50 (Mcl-1 protein; [2]) [M] | IC50 [1, 3] [M] | PARP fold (cleaved form of PARP) [fold] | IC50 ([1]; exposed for 48 hours) [M] | IC50 (M) Mcl-1 FP (Mcl-1 protein; Method 1 (not underlined) or Method 2 (underlined), underlining not visible, first value where cell prints two) | IC50 (Mcl-1 protein; value after '/', presumably the other FP method (Method 1 / Method 2), read-out: IC50 (M) Mcl-1 FP, second value of the cell) [M] | percentage fluorescence polarization inhibition (Mcl-1 protein; @ 10 μM test compound, partial inhibitors) [% @ 10 μM]
1 | COc1ccccc1-c1nccc(COc2ccccc2C[C@@H](Oc2ncnc3c2c(-c2ccc(OCCN4CCN(C)CC4)c(Cl)c2C)c(-c2ccc(F)cc2)n3C)C(=O)O)n1 [Example 72, (2R)-2-[5-[3-chloro-2-methyl-4-[2-(4-methylpiperazin-1-yl)ethoxy]phenyl]-6-(4-fluorophenyl)-7-methyl-pyrrolo[2,3-d]pyrimidin-4-yl]oxy-3-[2-[[2-(2-methoxyphenyl)pyrimidin-4-yl]methoxy]phenyl]propanoic acid] | 1.55e-08 | 3.2e-08 | 15.7 | – | – | – | –
2 | COc1ccccc1-c1nccc(COc2ccccc2CC(Oc2cccc3sc(-c4ccc(F)cc4)c(-c4ccc(OCCN5CCN(C)CC5)c(Cl)c4C)c23)C(=O)O)n1 (single isomer, unassigned) [Example 53] | 2.2e-08 | 2.53e-08 | 40.2 | – | – | – | –
3 | COc1ccccc1-c1nccc(COc2ccccc2CC(Oc2cc(F)cc3oc(-c4ccc(F)cc4)c(-c4ccc(OCCN5CCN(C)CC5)c(Cl)c4C)c23)C(=O)O)n1 [Example 67, (2R)-2-{[(3Sa)-3-{3-chloro-2-methyl-4-[2-(4-methylpiperazin-1-yl)ethoxy]phenyl}-6-fluoro-2-(4-fluorophenyl)-1-benzofuran-4-yl]oxy}-3-(2-{[2-(2-methoxyphenyl)pyrimidin-4-yl]methoxy}phenyl)propanoic acid] | 1.4e-08 | 8.36e-08 | 29.3 | – | – | – | –
4 | COc1ccccc1-c1nccc(COc2ccccc2C[C@@H](Nc2ncnc3oc(-c4ccc(F)cc4)c(-c4ccc(OCCN5CCN(C)CC5)c(Cl)c4C)c23)C(=O)O)n1 [Example 9, N-[(5Ra)-5-{3-chloro-2-methyl-4-[2-(4-methylpiperazin-1-yl)ethoxy]phenyl}-6-(4-fluorophenyl)furo[2,3-d]pyrimidin-4-yl]-2-{[2-(2-methoxyphenyl)pyrimidin-4-yl]methoxy}-D-phenylalanine] | 8.6e-08 | – | – | 6.89e-08 | – | – | –
5 | COc1ccccc1-c1nccc(COc2ccccc2C[C@@H](Nc2ccnc3nc(-c4ccc(F)cc4)c(-c4ccc(OCCN5CCN(C)CC5)c(Cl)c4C)n23)C(=O)O)n1 [Example 102, N-[3-{3-chloro-2-methyl-4-[2-(4-methylpiperazin-1-yl)ethoxy]phenyl}-2-(4-fluorophenyl)imidazo[1,2-a]pyrimidin-5-yl]-2-{[2-(2-methoxyphenyl)pyrimidin-4-yl]methoxy}-D-phenylalanine] | – | > 3e-05 | – | – | no curve | – | –
6 | COc1ccccc1-c1nccc(COc2ccccc2C[C@@H](Oc2ncnc3oc(-c4ccc(F)cc4)c(-c4ccc(OCCN5CCN(C)CC5)c(Cl)c4C)c23)C(=O)O)n1 [Example 1, (2R)-2-{[5-{3-chloro-2-methyl-4-[2-(4-methylpiperazin-1-yl)ethoxy]phenyl}-6-(4-fluorophenyl)furo[2,3-d]pyrimidin-4-yl]oxy}-3-(2-{[2-(2-methoxyphenyl)pyrimidin-4-yl]methoxy}phenyl)propanoic acid] | 3.8e-09 | 2.41e-08 | 157.5 | – | – | – | –
7 | COc1ccccc1-c1nccc(COc2ccccc2C[C@@H](Nc2nccc3sc(-c4ccc(F)cc4)c(-c4ccc(OCCN5CCN(C)CC5)c(Cl)c4C)c23)C(=O)O)n1 [Example 86, N-[3-{3-chloro-2-methyl-4-[2-(4-methylpiperazin-1-yl)ethoxy]phenyl}-2-(4-fluorophenyl)thieno[3,2-c]pyridin-4-yl]-2-{[2-(2-methoxyphenyl)pyrimidin-4-yl]methoxy}phenylalanine] | 3.05e-08 | 3.59e-08 | – | – | – | – | –
8 | COc1ccccc1-c1nccc(COc2ccccc2CC(Nc2ncnc3oc(-c4ccc(F)cc4)c(-c4ccc(OCCN5CCN(C)CC5)c(Cl)c4C)c23)C(=O)O)n1 [Example 8, N-[(5Sa)-5-{3-chloro-2-methyl-4-[2-(4-methylpiperazin-1-yl)ethoxy]phenyl}-6-(4-fluorophenyl)furo[2,3-d]pyrimidin-4-yl]-2-{[2-(2-methoxyphenyl)pyrimidin-4-yl]methoxy}-D-phenylalanine] | 6.6e-09 | 1.78e-08 | 55.4 | – | – | – | –
9 | COc1ccccc1-c1nccc(COc2ccccc2CC(Oc2ccnc3sc(-c4ccc(F)cc4)c(-c4ccc(OCCN5CCN(C)CC5)c(Cl)c4C)c23)C(=O)O)n1 [Example 71, (2R)-2-{[(3Sa)-3-{3-chloro-2-methyl-4-[2-(4-methylpiperazin-1-yl)ethoxy]phenyl}-2-(4-fluorophenyl)thieno[2,3-b]pyridin-4-yl]oxy}-3-(2-{[2-(2-methoxyphenyl)pyrimidin-4-yl]methoxy}phenyl)propanoic acid] | 5.02e-09 | 9.08e-09 | – | – | – | – | –
10 | CCc1c(-c2c(-c3ccc(F)cc3)oc3ncnc(O[C@H](Cc4ccccc4OCc4ccnc(-c5ccccc5OC)n4)C(=O)O)c23)ccc(OCCN2CCN(C)CC2)c1Cl [Example 2, (2R)-2-{[5-{3-chloro-2-ethyl-4-[2-(4-methylpiperazin-1-yl)ethoxy]phenyl}-6-(4-fluorophenyl)furo[2,3-d]pyrimidin-4-yl]oxy}-3-(2-{[2-(2-methoxyphenyl)pyrimidin-4-yl]methoxy}phenyl)propanoic acid] | 6e-09 | 1.45e-08 | 216.3 | – | – | – | –
11 | CCc1sc2cccc(OC(Cc3ccccc3)C(=O)O)c2c1-c1ccc(OCCN2CCN(C)CC2)c(Cl)c1C [Example 51, (2R)-2-[((3Sa)-3-{3-chloro-2-methyl-4-[2-(4-methylpiperazin-1-yl)ethoxy]phenyl}-2-ethyl-1-benzothiophen-4-yl)oxy]-3-phenylpropanoic acid] | 3.6e-07 | 1.1e-05 | – | – | – | 5.5e-09 | –
12 | COc1ccccc1-c1nccc(COc2ccccc2C[C@@H](Nc2ccnc3sc(-c4ccc(F)cc4)c(-c4ccc(OCCN5CCN(C)CC5)c(Cl)c4C)c23)C(=O)O)n1 [Example 84, N-[3-{3-chloro-2-methyl-4-[2-(4-methylpiperazin-1-yl)ethoxy]phenyl}-2-(4-fluorophenyl)thieno[2,3-b]pyridin-4-yl]-2-{[2-(2-methoxyphenyl)pyrimidin-4-yl]methoxy}-D-phenylalanine] | 5.45e-09 | 1.09e-08 | – | – | – | – | –
13 | COc1ccccc1-c1nccc(COc2ccccc2CC(Oc2nccc3nc(-c4ccc(F)cc4)c(-c4ccc(OCCN5CCN(C)CC5)c(Cl)c4C)n23)C(=O)O)n1 (stereo not drawn) [Example 97a, 2-{[(3Sa)-3-{3-chloro-2-methyl-4-[2-(4-methylpiperazin-1-yl)ethoxy]phenyl}-2-(4-fluorophenyl)imidazo[1,2-c]pyrimidin-5-yl]oxy}-3-(2-{[2-(2-methoxyphenyl)pyrimidin-4-yl]methoxy}phenyl)propanoic acid] | – | – | – | 1.16e-05 | – | – | 55
